pIC50: −log10 of the molar value.

The results in this text go back to patent US7932270B2 (Cytokinetics, Inc., priority 2006, dated 2011).

The assay deals with T1, chicken gizzard smooth muscle myosin subfragment-1 chemically crosslinked to cardiac or skeletal actin (Gallus gallus, UniProt P10587).
T1 construct: chicken gizzard smooth muscle myosin subfragment-1; from tissue; host or cells: chicken gizzard
T1 sequence (P02607 2-151): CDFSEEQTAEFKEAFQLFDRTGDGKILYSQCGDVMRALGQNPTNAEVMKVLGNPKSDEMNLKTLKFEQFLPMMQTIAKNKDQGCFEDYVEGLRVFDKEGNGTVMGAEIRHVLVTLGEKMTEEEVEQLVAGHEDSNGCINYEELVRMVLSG
T1 sequence (P10587 84-789): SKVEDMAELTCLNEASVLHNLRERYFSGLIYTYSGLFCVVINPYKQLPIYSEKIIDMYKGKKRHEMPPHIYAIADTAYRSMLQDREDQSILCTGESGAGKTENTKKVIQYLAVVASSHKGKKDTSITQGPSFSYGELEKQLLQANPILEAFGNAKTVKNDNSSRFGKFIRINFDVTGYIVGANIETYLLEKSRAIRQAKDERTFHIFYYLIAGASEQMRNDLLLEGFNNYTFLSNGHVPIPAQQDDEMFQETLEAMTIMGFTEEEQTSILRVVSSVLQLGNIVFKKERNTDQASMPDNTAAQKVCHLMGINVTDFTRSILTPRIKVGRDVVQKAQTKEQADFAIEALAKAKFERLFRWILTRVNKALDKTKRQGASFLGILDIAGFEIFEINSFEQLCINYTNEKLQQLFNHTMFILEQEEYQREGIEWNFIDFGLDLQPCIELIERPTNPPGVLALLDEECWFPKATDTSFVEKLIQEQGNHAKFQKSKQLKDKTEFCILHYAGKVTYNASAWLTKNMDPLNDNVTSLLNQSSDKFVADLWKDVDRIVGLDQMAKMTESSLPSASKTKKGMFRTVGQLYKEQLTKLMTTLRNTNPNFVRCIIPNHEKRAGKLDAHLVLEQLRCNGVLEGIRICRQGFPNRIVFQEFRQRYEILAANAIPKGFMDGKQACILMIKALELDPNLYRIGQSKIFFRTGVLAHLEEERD
Briefly: Smooth muscle myosin ATPase dose response assay (pyruvate kinase/horseradish peroxidase/pyruvate oxidase-coupled, amplex red fluorescence). In kind it is biochemical. Particulars: read-out: IC50 Arithmetic Mean. The method, boiled down: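 Inhibition is measured in a peroxidase/pyruvate oxidase-linked format at pH 7.00 and 22° C, 0.15 mM ATP final. Myosin input is titrated to a target turnover since active fraction differs between preparations.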
For `N#Cc1ccccc1-c1ccc(C(=O)NC[C@H]2CCCN(C(=O)CCCN)C2)c(NCCc2cccc(F)c2)n1` [N-{[(3R)-1-(4-aminobutanoyl)(3-piperidyl)]methyl}(6-(2-cyanophenyl)-2-{[2-(3-fluorophenyl)ethyl]amino}(3-pyridyl))carboxamide], the pIC50 was 6.29.

Consider `N#Cc1ccccc1-c1ccc(C(=O)NC[C@@H]2CCCN(C(=O)CN)C2)c(NCCc2cccc(F)c2)n1` [N-{[(3S)-1-(2-aminoacetyl)(3-piperidyl)]methyl}(6-(2-cyanophenyl)-2-{[2-(3-fluorophenyl)ethyl]amino}(3-pyridyl))carboxamide], for which the pIC50 is 6.12.

For `N#Cc1ccccc1-c1ccc(C(=O)NC[C@@H]2CCCN(C(=O)CCN)C2)c(NCCc2cccc(F)c2)n1` [N-{[(3S)-1-(3-aminopropanoyl)(3-piperidyl)]methyl}(6-(2-cyanophenyl)-2-{[2-(3-fluorophenyl)ethyl]amino}(3-pyridyl))carboxamide], the negative logarithm of the IC50 (pIC50) is 5.90.

For `O=C(NCc1cccnc1)c1ccc(-c2ccc(C(=O)NCc3cccnc3)c(NCCc3cccc(F)c3)n2)nc1NCCc1cccc(F)c1` [[2-{[2-(3-fluorophenyl)ethyl]amino}-6-(6-{[2-(3-fluorophenyl)ethyl]amino}-5-[N-(3-pyridylmethyl)carbamoyl](2-pyridyl))(3-pyridyl)]-N-(3-pyridylmethyl)carboxamide], the pIC50 was 4.51.

For `NCc1ccc(-c2ccccc2)nc1NCCc1cccc(F)c1` [[3-(aminomethyl)-6-phenyl(2-pyridyl)][2-(3 fluorophenyl)ethyl]amine], the pIC50 is 4.40.

On to `CCCNc1nc(-c2ccccc2)ccc1C(=O)NCc1cccnc1` [[6-phenyl-2-(propylamino)(3-pyridyl)]-N-(3-pyridylmethyl)carboxamide], for which the pIC50 is 4.94.

Take `O=C(NCc1cccnc1)c1ccc(-c2ccccc2)nc1NCCc1cccc(C(F)(F)F)c1` [[6-phenyl-2-({2-[3-(trifluoromethyl)phenyl]ethyl}amino)(3-pyridyl)]-N-(3-pyridylmethyl)carboxamide]: the pIC50 was 5.08.

For the molecule `CCOC(=O)CNCC(O)c1ccc(-c2ccccc2)nc1NCCc1cccc(F)c1` (stereo not drawn) [ethyl 2-{[2-(2-{[2-(3-fluorophenyl)ethyl]amino}-6-phenyl(3-pyridyl))-2-hydroxyethyl]amino}acetate], the pIC50 was 4.82.

As for `CCOC(=O)CCNC(=O)c1ccc(-c2ccccc2C#N)nc1NCCc1cccc(F)c1` [ethyl 3-[(6-(2-cyanophenyl)-2-{[2-(3-fluorophenyl)ethyl]amino}-3-pyridyl)carbonylamino]propanoate], the pIC50 is 5.32.

Regarding `COC(=O)CNC(=O)c1ccc(-c2ccccc2)nc1NCCc1ccccc1` [methyl 2-({6-phenyl-2-[(2-phenylethyl)amino]-3-pyridyl}carbonylamino)acetate], the pIC50 is 5.87.

Regarding `COC(=O)CNC[C@H](N)CNC(=O)c1ccc(-c2cnn(C)c2)nc1NCCc1cccc(F)c1` [methyl 2-({(2S)-2-amino-3-[(2-{[2-(3-fluorophenyl)ethyl]amino}-6-(1-methylpyrazol-4-yl)(3-pyridyl))carbonylamino]propyl}amino)acetate], the pIC50 was 4.96.

For the molecule `COC(=O)CNC[C@H](N)CNC(=O)c1ccc(-c2ccccc2C#N)nc1NCCc1cccc(F)c1` [methyl 2-({(2S)-2-amino-3-[(6-(2-cyanophenyl)-2-{[2-(3-fluorophenyl)ethyl]amino}(3-pyridyl))carbonylamino]propyl}amino)acetate], the negative-log IC50 (pIC50) is 6.04.

As for `COC(=O)CNC(=O)c1ccc(-c2ccccc2C#N)nc1NCCc1cccc(F)c1` [methyl 2-[(6-(2-cyanophenyl)-2-{[2-(3-fluorophenyl)ethyl]amino}-3-pyridyl)carbonylamino]acetate], the pIC50 is 7.00.

With `COC(=O)c1cccc(CCNc2nc(-c3ccccc3)ccc2C(=O)NCc2cccnc2)c1` [methyl 3-[2-({6-phenyl-3-[N-(3-pyridylmethyl)carbamoyl]-2-pyridyl}amino)ethyl]benzoate], the pIC50 was 4.55.

For the molecule `COC(=O)CCC(=O)N1CCC[C@@H]1CNC(=O)c1ccc(-c2cnn(C)c2)nc1NCCc1cccc(F)c1` [methyl 4-((2R)-2-{[(2-{[2-(3-fluorophenyl)ethyl]amino}-6-(1-methylpyrazol-4-yl)(3-pyridyl))carbonylamino]methyl}pyrrolidinyl)-4-oxobutanoate], the pIC50 was 5.41.

With `COC(=O)CCC(=O)N1CCC[C@@H]1CNC(=O)c1cc(F)c(-c2cnn(C)c2)nc1NCCc1cccc(F)c1` [methyl 4-((2R)-2-{[(5-fluoro-2-{[2-(3-fluorophenyl)ethyl]amino}-6-(1-methylpyrazol-4-yl)(3-pyridyl))carbonylamino]methyl}pyrrolidinyl)-4-oxobutanoate], the pIC50 was 6.27.

Regarding `COC(=O)CCC(=O)N1CC[C@@H]1CNC(=O)c1ccc(-c2ccccc2C#N)nc1NCCc1cccc(F)c1` [methyl 4-((2R)-2-{[(6-(2-cyanophenyl)-2-{[2-(3-fluorophenyl)ethyl]amino}(3-pyridyl))carbonylamino]methyl}azetidinyl)-4-oxobutanoate], the negative logarithm of the IC50 (pIC50) is 6.28.

With `COC(=O)CCC(=O)N1CCC[C@@H]1CNC(=O)c1ccc(-c2ccccc2C#N)nc1NCCc1cccc(F)c1` [methyl 4-((2R)-2-{[(6-(2-cyanophenyl)-2-{[2-(3-fluorophenyl)ethyl]amino}(3-pyridyl))carbonylamino]methyl}pyrrolidinyl)-4-oxobutanoate], the pIC50 was 6.18.

In the case of `COC(=O)CCCNC(=O)c1ccc(-c2ccccc2C#N)nc1NCCc1cccc(F)c1` [methyl 4-[(6-(2-cyanophenyl)-2-{[2-(3-fluorophenyl)ethyl]amino}-3-pyridyl)carbonylamino]butanoate], the pIC50 was 6.15.

`COC(=O)c1ccc(-c2ccc(C(=O)NCc3cccnc3)c(NCCc3ccccn3)n2)cc1` [methyl 4-{6-[(2-(2-pyridyl)ethyl)amino]-5-[N-(3-pyridylmethyl)carbamoyl]-2-pyridyl}benzoate]: the pIC50 is 6.00.

For `COC(=O)N1CCC(CNC(=O)c2ccc(-c3ccccc3C#N)nc2NCCc2cccc(F)c2)CC1` [methyl 4-{[(6-(2-cyanophenyl)-2-{[2-(3-fluorophenyl)ethyl]amino}-3-pyridyl)carbonylamino]methyl}piperidinecarboxylate], the pIC50 was 5.67.

`COC(=O)c1cc(Cl)c(-c2cnn(C)c2)nc1NCCc1cccc(F)c1` [methyl 5-chloro-2-{[2-(3-fluorophenyl)ethyl]amino}-6-(1-methylpyrazol-4-yl)pyridine-3-carboxylate]: the pIC50 is 4.81.

As for `COC(=O)c1cccc(CNC(=O)c2ccc(-c3ccccc3C#N)nc2NCCc2cccc(F)c2)n1` [methyl 6-{[(6-(2-cyanophenyl)-2-{[2-(3-fluorophenyl)ethyl]amino}-3-pyridyl)carbonylamino]methyl}pyridine-2-carboxylate], the pIC50 was 7.19.

With `COC(=O)[C@@H](CO)NC(=O)c1ccc(-c2ccccc2C#N)nc1NCCc1cccc(F)c1` [methyl (2R)-2-[(6-(2-cyanophenyl)-2-{[2-(3-fluorophenyl)ethyl]amino}(3-pyridyl))carbonylamino]-3-hydroxypropanoate], the pIC50 is 6.29.

In the case of `COC(=O)[C@@H](C)NC(=O)c1ccc(-c2ccccc2C#N)nc1NCCc1cccc(F)c1` [methyl (2R)-2-[(6-(2-cyanophenyl)-2-{[2-(3-fluorophenyl)ethyl]amino}(3-pyridyl))carbonylamino]propanoate], the pIC50 was 6.13.

Consider `COC(=O)[C@@H](CNC(=O)c1cc(F)c(-c2cnn(C)c2)nc1NCCc1cccc(F)c1)NC(=O)OC(C)(C)C` [methyl (2R)-2-[(tert-butoxy)carbonylamino]-3-[(5-fluoro-2-{[2-(3-fluorophenyl)ethyl]amino}-6-(1-methylpyrazol-4-yl)(3-pyridyl))carbonylamino]propanoate], for which the pIC50 is 4.04.

On to `COC(=O)[C@H](N)CNC(=O)c1cc(F)c(-c2cnn(C)c2)nc1NCCc1cccc(F)c1` [methyl (2R)-2-amino-3-[(5-fluoro-2-{[2-(3-fluorophenyl)ethyl]amino}-6-(1-methylpyrazol-4-yl)(3-pyridyl))carbonylamino]propanoate], for which the pIC50 was 6.25.

On to `COC(=O)[C@H](N)CNC(=O)c1ccc(-c2ccccc2C#N)nc1NCCc1cccc(F)c1` [methyl (2R)-2-amino-3-[(6-(2-cyanophenyl)-2-{[2-(3-fluorophenyl)ethyl]amino}(3-pyridyl))carbonylamino]propanoate], for which the pIC50 was 5.64.

For `COC(=O)N1CC[C@@H]1CNC(=O)c1ccc(-c2cn[nH]c2)nc1NCCc1cccc(F)c1` [methyl (2R)-2-{[(2-{[2-(3-fluorophenyl)ethyl]amino}-6-pyrazol-4-yl(3-pyridyl))carbonylamino]methyl}azetidinecarboxylate], the pIC50 is 6.61.

Regarding `CC[C@H](CNC(=O)c1cc(F)c(-c2cnn(C)c2)nc1NCCc1cccc(F)c1)C(=O)OC` [methyl (2R)-2-{[(5-fluoro-2-{[2-(3-fluorophenyl)ethyl]amino}-6-(1-methylpyrazol-4-yl)(3-pyridyl))carbonylamino]methyl}butanoate], the pIC50 is 6.93.

In the case of `CC[C@H](CNC(=O)c1cc(F)c(-c2cn[nH]c2)nc1NCCc1cccc(F)c1)C(=O)OC` [methyl (2R)-2-{[(5-fluoro-2-{[2-(3-fluorophenyl)ethyl]amino}-6-pyrazol-4-yl(3-pyridyl))carbonylamino]methyl}butanoate], the pIC50 is 6.93.

Turning to `COC(=O)N1CC[C@@H]1CNC(=O)c1ccc(-c2ccccc2C#N)nc1NCCc1cccc(F)c1` [methyl (2R)-2-{[(6-(2-cyanophenyl)-2-{[2-(3-fluorophenyl)ethyl]amino}(3-pyridyl))carbonylamino]methyl}azetidinecarboxylate], the pIC50 is 7.14.

`COC(=O)N1CCNC[C@@H]1CNC(=O)c1ccc(-c2ccccc2C#N)nc1NCCc1cccc(F)c1` [methyl (2R)-2-{[(6-(2-cyanophenyl)-2-{[2-(3-fluorophenyl)ethyl]amino}(3-pyridyl))carbonylamino]methyl}piperazinecarboxylate]: the pIC50 is 4.94.

Usually pIC50 stands for −log10 of the IC50, conventionally taken in molar units.
